Key:
α1d-AR = molecular target: T1, α1d-AR (Homo sapiens, UniProt P25100); test: receptor binding assay, [125I]-HEAT, membranes of COS cells expressing α1d-AR; conditions: [125I]-HEAT 50 pM, human α1d-AR in COS cell membranes; unit 'nanomolar'
T1 construct: expressed in transfected cells; host or cells: COS cells (pcDNA3, transient DEAE-dextran transfection; membranes)
T1 sequence (P25100 1-572): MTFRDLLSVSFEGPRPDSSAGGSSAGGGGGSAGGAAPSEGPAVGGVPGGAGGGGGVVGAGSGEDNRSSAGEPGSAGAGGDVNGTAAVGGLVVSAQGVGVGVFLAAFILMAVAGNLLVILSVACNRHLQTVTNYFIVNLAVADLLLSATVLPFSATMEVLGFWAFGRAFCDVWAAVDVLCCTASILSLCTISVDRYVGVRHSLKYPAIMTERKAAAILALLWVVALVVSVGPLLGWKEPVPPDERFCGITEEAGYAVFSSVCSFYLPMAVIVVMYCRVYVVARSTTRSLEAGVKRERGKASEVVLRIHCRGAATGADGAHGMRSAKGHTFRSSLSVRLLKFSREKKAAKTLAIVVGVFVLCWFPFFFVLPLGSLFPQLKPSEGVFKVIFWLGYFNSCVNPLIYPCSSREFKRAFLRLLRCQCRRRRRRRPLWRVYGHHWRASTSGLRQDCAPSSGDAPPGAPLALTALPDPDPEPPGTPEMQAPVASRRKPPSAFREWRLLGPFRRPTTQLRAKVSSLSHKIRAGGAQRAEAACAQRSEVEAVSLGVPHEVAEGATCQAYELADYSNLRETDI
Text: (§1) The DNA sequences of the three cloned human α1-AR subtypes have been published. […] We used published DNA sequence information to design primers for use in RT-PCR amplification of each subtype to obtain cloned cDNAs. Human poly A+ RNA was obtained from commercially available sources and included hippocampus and prostate samples, sources which have been cited in the literature. For the primary screen a radio ligand binding assay was used which employed membrane preparations from cells expressing the individual cloned receptor cDNAs. Radiolabeled ligands with binding activity on all three subtypes (non-selective) are commercially available ([125I]-HEAT, [3H]-prazosin).
(§2) Each α1 receptor subtype was cloned from poly A+ RNA by the standard method of reverse transcription-polymerase chain reaction (RT-PCR). The following sources of polyA+ RNA were used for the cloning of the α1 receptor subtypes: α1a -AR, human hippocampus and prostate, α1b -AR, human hippocampus, α1d -AR, human hippocampus. The resulting cDNAs were cloned into the pcDNA3 mammalian expression vector (Invitrogen Corp., San Diego Calif.). Each DNA was sequenced for verification and to detect any possible mutations introduced during the amplification process. Any deviation in sequence from the published consensus for each receptor subtype was corrected by site-directed mutagenesis.
(§3) The three α1-AR subtypes (a, b, d) were transfected into COS cells using a standard DEAE-dextran procedure with a chloroquine shock. In this procedure, each tissue culture dish (100 mm) was inoculated with 3.5×10^6 cells and transfected with 10 μg of DNA. Approximately 72 hours post-transfection, the cells were harvested and COS membranes were prepared. Transfected COS cells from 25 plates (100 mm) were scraped and suspended in 15 mL of TE buffer (50 mM Tris-HCl, 5 mM EDTA, pH7.4). The suspension was disrupted with a homogenizer. It was then centrifuged at 1000×g for 10 minutes at […]. The supernatant was centrifuged at 34,500×g for 20 minutes at 4° C. The pellet was resuspended in 5 mL TNE buffer (50 mM Tris-HCl, 5 mM EDTA, 150 mM NaCl, pH7.4). The resulting membrane preparation was aliquoted and stored at -70° C. The protein concentration was determined following membrane solubilization with TritonX-100.
(§4) The ability of each compound to bind to each of the α1-AR subtypes was assessed in a receptor binding assay. [125I]-HEAT, a non-selective α1-AR ligand, was used as the radiolabeled ligand. Each well of a 96-well plate received: 140 μL TNE, 25 μL [125I]-HEAT diluted in TNE (50,000 cpm; final concentration 50 pM), 10 μL test compound diluted in DMSO (final concentration 1 pM-10 μM), […] COS cell membrane preparation expressing one of the three α1-AR subtypes (0.05-0.2 mg membrane protein). The plate was incubated for 1 hour at room temperature and the reaction mixtures were filtered through a Packard GF/C Unifilter filter plate. The filter plate was dried for 1 hour in a vacuum oven. Scintillation fluid ([…]) was added to each well, and the filter plate was counted in a Packard Topcount scintillation counter. Data was analyzed using GraphPad Prism software.

α1b-AR = molecular target: T2, α1b-AR (Homo sapiens, UniProt P35368); test: receptor binding assay, [125I]-HEAT, membranes of COS cells expressing α1b-AR; conditions: [125I]-HEAT 50 pM, human α1b-AR in COS cell membranes; unit 'nanomolar'
T2 construct: expressed in transfected cells; host or cells: COS cells (pcDNA3, transient DEAE-dextran transfection; membranes)
T2 sequence (P35368 1-520): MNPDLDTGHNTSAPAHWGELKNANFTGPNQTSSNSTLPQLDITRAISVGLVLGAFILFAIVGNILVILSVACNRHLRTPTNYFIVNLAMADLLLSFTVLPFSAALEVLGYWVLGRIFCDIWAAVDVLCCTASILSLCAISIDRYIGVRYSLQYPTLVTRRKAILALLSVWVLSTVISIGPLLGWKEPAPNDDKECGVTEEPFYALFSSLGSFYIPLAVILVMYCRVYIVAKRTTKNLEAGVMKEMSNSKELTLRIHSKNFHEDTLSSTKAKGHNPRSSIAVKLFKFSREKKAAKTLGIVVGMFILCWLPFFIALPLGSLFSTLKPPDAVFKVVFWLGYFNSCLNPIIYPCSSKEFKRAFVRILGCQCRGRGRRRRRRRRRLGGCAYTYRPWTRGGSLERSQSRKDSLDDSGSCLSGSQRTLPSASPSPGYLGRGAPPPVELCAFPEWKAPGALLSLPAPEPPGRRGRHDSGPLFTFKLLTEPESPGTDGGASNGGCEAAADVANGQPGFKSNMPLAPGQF
Text: as §1, §2, §3, §4

α1a-AR = molecular target: T3, α1a-AR (Homo sapiens, UniProt P35348); test: receptor binding assay, [125I]-HEAT, membranes of COS cells expressing α1a-AR; conditions: [125I]-HEAT 50 pM, human α1a-AR in COS cell membranes; unit 'nanomolar'
T3 construct: expressed in transfected cells; host or cells: COS cells (pcDNA3, transient DEAE-dextran transfection; membranes)
T3 sequence (P35348 1-466): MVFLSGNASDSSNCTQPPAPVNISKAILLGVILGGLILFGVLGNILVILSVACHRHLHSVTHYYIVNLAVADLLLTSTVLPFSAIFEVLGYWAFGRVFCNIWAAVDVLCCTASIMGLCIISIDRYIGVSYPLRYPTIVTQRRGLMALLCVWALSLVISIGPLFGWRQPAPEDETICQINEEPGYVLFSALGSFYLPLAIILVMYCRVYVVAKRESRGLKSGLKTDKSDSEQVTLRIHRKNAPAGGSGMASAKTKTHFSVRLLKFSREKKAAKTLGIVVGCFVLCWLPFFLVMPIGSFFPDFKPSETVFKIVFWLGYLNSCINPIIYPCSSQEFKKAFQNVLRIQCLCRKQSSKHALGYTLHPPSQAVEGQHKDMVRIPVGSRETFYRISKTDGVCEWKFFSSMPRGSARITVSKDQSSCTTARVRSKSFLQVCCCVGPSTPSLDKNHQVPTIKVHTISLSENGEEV
Text: as §1, §2, §3, §4

5α-reductase = conditions: cited from earlier work
symptomatic BPH = conditions: human, in vivo; cited from earlier work

Compound | IC50 (α1d-AR) [nM] | IC50 (α1b-AR) [nM] | IC50 (α1a-AR) [nM] | inhibition of 5α-reductase (in words) (5α-reductase) | effectiveness in treating symptomatic BPH (in words) (symptomatic BPH) | serum and tissue concentrations of dihydrotestosterone (in words) (symptomatic BPH) | time for effects to become evident (symptomatic BPH)
CC(C)Oc1ccccc1N1CCN(CC(O)CNC(=O)c2cccnc2Oc2ccccc2)CC1 (stereo not shown) [Compound 3] | 211 | 909 | 1.5 |  |  |  | 
CC(C)Oc1ccccc1N1CCN(CCCNC(=O)c2cccnc2Oc2ccccc2)CC1 [Compound 5] | 40 | 151 | 0.64 |  |  |  | 
CC(C)Oc1ccccc1N1CCN(C[C@@H](O)CNC(=O)c2cccnc2Oc2ccccc2)CC1 [Compound 8] | 81 | 668 | 0.76 |  |  |  | 
COc1ccc(Oc2ncccc2C(=O)NCC(O)CN2CCN(c3ccccc3OC(C)C)CC2)cc1 (stereo not shown) [Compound 10] | 131 | 1910 | 2.4 |  |  |  | 
CC(C)Oc1ccccc1N1CCN(CC(O)CNC(=O)c2cccnc2Nc2cccc(C(F)(F)F)c2)CC1 (stereo not shown) [Compound 11] | 79 | 1020 | 25 |  |  |  | 
CC(C)Oc1ccccc1N1CCN(CC(O)CNC(=O)c2cccnc2Sc2ccc(Cl)cc2)CC1 (stereo not shown) [Compound 12] | 299 | 806 | 2.6 |  |  |  | 
COc1ncccc1C(=O)NCC(O)CN1CCN(c2ccccc2OC(C)C)CC1 (stereo not shown) [Compound 13] | 191 | > 2000 | 3.5 |  |  |  | 
COC(CNC(=O)c1cccnc1Oc1ccccc1)CN1CCN(c2ccccc2OC(C)C)CC1 (stereo not shown) [Compound 16] | 21 | 1360 | 2.4 |  |  |  | 
CC(C)Oc1ccccc1N1CCN(CC(=O)CNC(=O)c2cccnc2Oc2ccccc2)CC1 [Compound 17] | 546 | 887 | 63 |  |  |  | 
Cc1ccc(Oc2ncccc2C(=O)NC[C@H](O)CN2CCN(c3ccccc3OC(C)C)CC2)cc1 [Compound 18] | 50 | 290 | 0.51 |  |  |  | 
CC(C)Oc1ccccc1N1CCN(C[C@@H](O)CNC(=O)c2cccnc2Oc2ccc(Cl)cc2)CC1 [Compound 27] | 57 | 791 | 0.86 |  |  |  | 
Cc1ccc(Oc2ncccc2C(=O)NC[C@@H](O)CN2CCN(c3ccccc3OC(C)C)CC2)cc1 [Compound 28] | 969 | 361 | 25 |  |  |  | 
Cc1ccc(Oc2ncccc2C(=O)NCCCN2CCN(c3ccccc3OC(C)C)CC2)cc1 [Compound 29] | 43 | > 2000 | 0.27 |  |  |  | 
CC(C)Oc1ccccc1N1CCN(CC(O)CNC(=O)c2cccnc2Oc2ccc(Cl)c(Cl)c2)CC1 (stereo not shown) [Compound 30] | 56 | 2250 | 2 |  |  |  | 
CC(C)Oc1ccccc1N1CCN(CC(O)CNC(=O)c2cccnc2Nc2ccccc2)CC1 (stereo not shown) [Compound 31] | 25 | 736 | 25 |  |  |  | 
COc1ccccc1N1CCN(CC(O)CNC(=O)c2cccnc2Oc2ccccc2)CC1 (stereo not shown) [Compound 32] | 147 | 1570 | 30 |  |  |  | 
CC(C)Oc1ccccc1N1CCN(CC(O)CNC(=O)c2cccnc2Oc2ccc(C(C)(C)C)cc2)CC1 (stereo not shown) [Compound 33] | 78 | > 2000 | 3.3 |  |  |  | 
CCOc1ccccc1N1CCN(CC(O)CNC(=O)c2cccnc2Oc2ccccc2)CC1 (stereo not shown) [Compound 34] | 206 | 132 | 9.1 |  |  |  | 
CC(C)Oc1ccccc1N1CCN(C[C@H](O)CNC(=O)c2cccnc2Oc2ccccc2)CC1 [Compound 35] | 314 | 889 | 10.2 |  |  |  | 
CC(C)Oc1ccccc1N1CCN(CC(O)CNC(=O)c2cccnc2Oc2ccc(F)cc2)CC1 (stereo not shown) [Compound 36] | 148 | 1180 | 1.5 |  |  |  | 
CC(C)Oc1ccccc1N1CCN(CC(O)CNC(=O)c2cccnc2Oc2cccc(Cl)c2)CC1 (stereo not shown) [Compound 37] | 180 | 952 | 0.91 |  |  |  | 
CC(C)Oc1ccccc1N1CCN(CC(O)CNC(=O)c2cccnc2Oc2cccc(N(C)C)c2)CC1 (stereo not shown) [Compound 38] | 56 | 972 | 2 |  |  |  | 
Cc1ccccc1Oc1ncccc1C(=O)NCC(O)CN1CCN(c2ccccc2OC(C)C)CC1 (stereo not shown) [Compound 39] | 1.7 | 730 | 1.1 |  |  |  | 
COc1ccccc1Oc1ncccc1C(=O)NCC(O)CN1CCN(c2ccccc2OC(C)C)CC1 (stereo not shown) [Compound 40] | 2.2 | 580 | 1.7 |  |  |  | 
Cc1ccc(Oc2ncccc2C(=O)NCC(O)CN2CCN(c3ccccc3OC(C)C)CC2)cc1 (stereo not shown) [Compound 41] | 21 | 928 | 0.52 |  |  |  | 
CC(C)Oc1ccccc1N1CCN(CC(O)CNC(=O)c2cccnc2Oc2ccc(Cl)cc2)CC1 (stereo not shown) [Compound 42] | 74 | 838 | 1 |  |  |  | 
CC(C)Oc1ccccc1N1CCN(CC(O)CNC(=O)c2cccnc2Sc2ccccc2)CC1 (stereo not shown) [Compound 43] | 70 | 1220 | 2 |  |  |  | 
CC(C)(C)NC(=O)[C@H]1CC[C@H]2[C@@H]3CC[C@H]4NC(=O)C=C[C@]4(C)[C@H]3CC[C@]12C [finasteride] |  |  |  | potent 5α-reductase inhibitor | only moderately effective | marked decrease | 6-12 months

From patent US6218396A, “Substituted pyridino arylpiperazines useful in the treatment of benign prostatic hyperplasia” (Orth-McNeil Pharmaceutical, Inc., priority 1999, dated 2001)
